Where two headings read alike, the source gives them in different places.

One series deals with human brown adipose. Conditions: cited from earlier work.
In a further series the target is T1, mouse Tacr2 (Mus musculus, UniProt P30549).
T1 construct: host or cells: primary brown adipocytes
T1 sequence (P30549 1-384): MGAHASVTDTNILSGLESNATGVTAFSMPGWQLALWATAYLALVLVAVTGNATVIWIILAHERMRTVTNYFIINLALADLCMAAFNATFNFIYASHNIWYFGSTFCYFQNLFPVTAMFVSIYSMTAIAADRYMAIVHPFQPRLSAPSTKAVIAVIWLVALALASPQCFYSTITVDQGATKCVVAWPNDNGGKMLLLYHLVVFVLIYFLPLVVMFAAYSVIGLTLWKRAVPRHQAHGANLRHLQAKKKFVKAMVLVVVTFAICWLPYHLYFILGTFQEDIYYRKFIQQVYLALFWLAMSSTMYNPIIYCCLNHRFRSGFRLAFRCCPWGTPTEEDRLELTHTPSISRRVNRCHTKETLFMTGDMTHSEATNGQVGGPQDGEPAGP
Briefly: IP3 assay in primary brown adipocytes transfected with Tacr2. It is filed as cell-based. Conditions: 24 hours NKA treatment; Tacr2 over-expressing primary brown adipocytes; FIG. 3a. The method, then:
Primary brown pre-adipocytes were isolated from intrascapular brown fat pads by collagenase type 1 (Worthington, NJ, USA) digestion on horizontal shaking water bath at 37° C. for 50 minutes with vortexing every 10 minutes. Collagenase was diluted in KRB with free fatty acid free BSA (Sigma-Aldrich, Denmark) in a ratio of 1:10. The enzymatic reaction was stopped by addition of growth media, and cell suspension was pelleted, resuspended in growth media before straining through a 40 μm nylon mesh (VWR, Denmark) to avoid tissue clumps. Pre-adipocytes were expanded in DMEM (Gibco, Denmark) supplemented with 10% fetal bovine serum (Invitrogen, Denmark) and 1% penicillin and streptomycin (Lonza, Denmark) until confluency. […]
Primary brown adipocytes were loaded with 5 μCi myo-[3H]inositol (Perkin Elmer, Denmark) in full maintenance media at the day after electroporation, and incubated overnight. […] After treatment, cells were extracted with 10 mM formic acid and cell membranes were captured using poly-L-lysine coated SPA beads (Perkin Elmer, Denmark), and analyzed on Top Counter (Perkin Elmer, Denmark).
(§1) Oxygen consumption was measured using the Seahorse XF-96 Flux Analyzer (Seahorse Bioscience, Denmark). […] All readings were performed over a two minutes period and mixing was performed for three minutes. […]

Series [1] concerns the target T2, mTacr2 (Mus musculus, UniProt P30549).
T2 construct: host or cells: HEK293
T2 sequence (P30549 1-384): T1 sequence (P30549 1-384)
Briefly: IP3 assay with 0.2% or 2% BSA (BSA binding). It is filed as cell-based. Conditions: for EC50: printed as log EC50 with negative sign. The method, then: (§2) HEK293 cells were transiently transfected with plasmid (pcDNA3.1, Genscript, NJ, USA) encoding human or mouse Tacr1-3 using Lipofectamine 2000 (Thermo Fisher, Denmark). After six hours of transfection, cells were loaded with 5 μCi myo-[3H]inositol (Perkin Elmer, Denmark) in full maintenance and cultured overnight. […] After treatment, cells were extracted with 10 mM formic acid and cell membranes were captured using poly-L-lysine coated SPA beads (Perkin Elmer, Denmark), and analyzed on Top Counter (Perkin Elmer, Denmark).
(§3) Data was analyzed using GraphPad Prism 7 (GraphPad, CA, USA),using 4 parametric logistic curve fitting. The data analysis included calculation of the top value, the bottom value, the hill slope as well as the log EC50.

The target in series [2] is T2, mTacr2. Briefly: IP3 assay in transfected HEK293 cells. It is filed as cell-based. The method, then:
as §2, §3

Series [3] has as its system diet induced obese (DIO) mice. Briefly: Insulin tolerance test after Neurokinin A treatment. The series is classed as in vivo, mice (male C57Bl/6). To be noted: vs control mice. The method, then: (§4) Oxygen consumption was measured every 5 minutes using the PhenoMaster. Data is representative of all days and show means±SEM of n=6. (b) Weight was measured every day throughout the experimental period. […] (c) Insulin tolerance test was performed in 3h fasted mice the day after treatment, and mice received 1 UI per kg lean body mass insulin intraperitoneal. […] (d) The three major adipose tissues were harvested weighed upon termination of experiment.
Mice were fasted for 3 hours prior to intra peritoneal insulin tolerance test (IPITT). Insulin (Actrapid, Novo Nordisk, DK) was dosed at 1 IU per kg lean body mass measured prior to treatment. Blood glucose was determined using glucometer from Roche. Lower blood glucose levels indicate greater insulin sensitivity.

Series [4] relates to diet induced obese (DIO) mice. Briefly: Neurokinin A treatment of diet induced obese mice. It is filed as in vivo, mice (male C57Bl/6). The method, then: as §4
All animal experiments were performed according to Danish animal legislation, with ad libitum access to food and water and 12 hour light-dark cycle. Male C57Bl/6 mice were purchased from Janvier (Denmark) at four weeks of age and acclimatized for one week prior to experimentation. For high fat diet studies, male C57Bl/6 mice were housed at room temperature and fed a 60% high fat diet (Research diets, D12492, Denmark) for 18 weeks. After being fed this diet, the mice were highly obese, typically having a body weight in the range of 42 to 45 g. These mice may also be referred to as diet induced obese (DIO) mice. Mice were randomized according to their weight and body composition measured by MRI scan (EchoMRI, TX, USA) before single-housing for at least one week prior treatment. Oxygen consumption and […] (RER) were measured using PhenoMaster (TSE-Systems, Germany). Food consumption was manually assessed every second day.
For treatment, NKA was diluted in Gelofusine® (B. Braun, DK) prior to subcutaneous injection. Mice were treated twice daily for 9 days.

The test system of a further series is primary brown adipocytes. Briefly: Oxygen consumption rate, Seahorse XF-96 Flux Analyzer. It is filed as cell-based. Conditions: 72 hours NKA treatment; primary brown adipocytes not transfected with Tacr2; FIG. 3b. The method, then:
Primary brown pre-adipocytes were isolated from intrascapular brown fat pads by collagenase type 1 (Worthington, NJ, USA) digestion on horizontal shaking water bath at 37° C. for 50 minutes with vortexing every 10 minutes. Collagenase was diluted in KRB with free fatty acid free BSA (Sigma-Aldrich, Denmark) in a ratio of 1:10. The enzymatic reaction was stopped by addition of growth media, and cell suspension was pelleted, resuspended in growth media before straining through a 40 μm nylon mesh (VWR, Denmark) to avoid tissue clumps. Pre-adipocytes were expanded in DMEM (Gibco, Denmark) supplemented with 10% fetal bovine serum (Invitrogen, Denmark) and 1% penicillin and streptomycin (Lonza, Denmark) until confluency. The day after reach of confluency, primary brown pre-adipocytes were differentiated using a cocktail consisting of insulin (0.5 mg/mL), rosiglitazone (1 mM), dexamethasone (100 μM), IBMX (50 mM) and T3 (1 μM) for two days, thereafter cells were maintained in growth media containing insulin and T3 throughout the experimental period. Maintenance media was changed every second day. Cells were grown at 37° C. with 10% CO2.
as §1

The target in series [5] is T3, Tacr2 (Homo sapiens, UniProt P21452).
T3 sequence (P21452 1-398): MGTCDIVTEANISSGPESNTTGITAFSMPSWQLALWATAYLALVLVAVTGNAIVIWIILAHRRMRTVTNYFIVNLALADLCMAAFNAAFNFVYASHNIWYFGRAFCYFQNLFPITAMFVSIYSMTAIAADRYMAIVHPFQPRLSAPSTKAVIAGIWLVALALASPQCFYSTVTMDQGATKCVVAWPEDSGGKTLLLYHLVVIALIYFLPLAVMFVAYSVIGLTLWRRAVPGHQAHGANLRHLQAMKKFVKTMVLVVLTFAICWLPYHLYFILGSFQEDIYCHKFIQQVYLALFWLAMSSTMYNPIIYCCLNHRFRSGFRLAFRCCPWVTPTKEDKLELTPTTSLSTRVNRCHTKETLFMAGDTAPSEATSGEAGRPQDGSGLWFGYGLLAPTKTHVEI
Conditions: Sp Hs; cited from earlier work.

Series [6] has as its target T4, Tacr2 (Rattus norvegicus, UniProt P16610).
T4 sequence (P16610 1-390): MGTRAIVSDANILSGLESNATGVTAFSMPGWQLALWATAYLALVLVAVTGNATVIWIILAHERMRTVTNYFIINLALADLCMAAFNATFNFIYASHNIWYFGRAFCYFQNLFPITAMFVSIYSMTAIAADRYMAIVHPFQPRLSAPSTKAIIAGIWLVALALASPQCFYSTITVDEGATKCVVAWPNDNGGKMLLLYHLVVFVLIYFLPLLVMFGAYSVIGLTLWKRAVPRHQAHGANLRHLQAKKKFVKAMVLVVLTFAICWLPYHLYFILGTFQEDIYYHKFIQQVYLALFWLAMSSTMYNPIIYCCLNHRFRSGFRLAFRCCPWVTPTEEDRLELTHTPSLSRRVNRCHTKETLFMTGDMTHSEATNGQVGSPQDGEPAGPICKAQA
To be noted: Sp Rn; cited from earlier work.

The target in series [7] is T4, Tacr2. Conditions: Sp Rn; cited from earlier work. The source holds these as a separate data set.
Series [8] concerns Tacr2. To be noted: Sp Cp; cited from earlier work.

Take `Nc1nc(CC(=O)Nc2ccc(CCNC[C@H](O)c3ccccc3)cc2)cs1` [Mirabegron]: the “activation of human brown adipose” value in the series on human brown adipose (proof-of-concept studies) is recorded as “activate human brown adipose”. For the same molecule, the “blood pressure and heart rate” value in the series with human brown adipose (side effects) was “elevated blood pressure and heart rate”.

As a reminder, the EC50 is the midpoint of the concentration-response curve. A higher EC50 goes with a less potent agent. Turning to `CSCC[C@H](NC(=O)[C@H](CC(C)C)NC(=O)CNC(=O)[C@@H](NC(=O)[C@H](Cc1ccccc1)NC(=O)[C@H](CO)NC(=O)[C@H](CC(=O)O)NC(=O)[C@@H](NC(=O)[C@H](CCCCN)NC(=O)[C@@H](N)Cc1cnc[nH]1)[C@@H](C)O)C(C)C)C(N)=O` [NKA, Neurokinin A], the IP3 levels result at mouse Tacr2 is listed as “increases IP3 levels”. Further, the EC50 at mTacr2 [1] (LogEC50, mTacr2, 0.2% BSA) is 3.54 nM. On mTacr2 [1] (LogEC50, mTacr2, 2% BSA), this molecule gave a concentration giving a half-maximal response (EC50) of 12.3 nM. Also, the BSA binding affinity entry at mTacr2 [1] (from Tacr2 activation at 0.2% vs 2% BSA) is on record as “low BSA binding affinity”. Also, on mTacr2 [1] (mTacr2, 0.2% BSA), the Hill-Slope stood at 1.082 and the Top was determined as 1788. On mTacr2 [1] (mTacr2, 2% BSA), this molecule yielded a Bottom of 111.3, a Hill-Slope of 0.8378 and a Top of 1719. Further, the EC50 on mTacr2 [2] was 8.09 nM. Moreover, in series [3] (3 h fasted, 1 IU insulin per kg lean body mass i.p., day after treatment, FIG. 4c), the “blood glucose level after insulin treatment (ITT)” value is on record as “significant lower blood glucose level after insulin treatment”. Further, in [3], the “insulin sensitivity (ITT)” value is recorded as “higher insulin sensitivity” and the “return of blood glucose to basal levels after Cmin (ITT)” value was “return to basal levels at a slower rate”. In addition, in series [4] (1 mg/kg NKA s.c. twice daily for 9 days), the metabolic parameters result is recorded as “improved metabolic parameters”. In [4] (1 mg/kg NKA s.c. twice daily for 9 days, FIG. 4a), the “calorie burning (oxygen consumption)” value is listed as “increased calorie burning”. The body weight result in [4] (1 mg/kg NKA s.c. twice daily for 9 days, FIG. 4b) is given as “significant reduction in body weight”. Further, the “desensitization to NKA” value in series [4] (9 consecutive days of treatment, FIG. 4a) is listed as “not accompanied by desensitization to NKA”. For the same molecule, the adipose tissue weight result in [4] (tissues harvested upon termination, FIG. 4d) is “reduction of white adipose tissue and not brown fat”. In addition, the “oxygen consumption rate (OCR)” value with primary brown adipocytes was “increases oxygen consumption rate (OCR)”.

On to `CSCC[C@H](NC(=O)[C@H](CC(C)C)NC(=O)CNC(=O)[C@@H](NC(=O)[C@H](Cc1ccccc1)NC(=O)[C@H](Cc1ccccc1)NC(=O)[C@H](CC(=O)O)NC(=O)[C@H](Cc1c[nH]cn1)NC(=O)[C@H](CCSC)NC(=O)[C@@H](N)CC(=O)O)C(C)C)C(N)=O` [NKB, neurokinin B], for which the Affinity on Tacr2 [5] is on record as 5.0-7.7 pKi.

Turning to “Neurokinin A (3-10) [GR64349, Neurokinin A (3-10) [Lys3, Gly8-(R)-γ-Lactam-Leu9]]”, on Tacr2 [6], the Affinity is reported as 8.4 pEC50.

Regarding “[Lys5,Me-Leu9, Nle10]NKA-(4-10) [[Lys5,Me-Leu9,Nle10]NKA-(4-10), DKFVGXJ, X = Me-Leu; J = Nle]”, the Affinity in the series with Tacr2 [7] is on record as 8.8-9.4 pIC50.

As for [βAla8]neurokinin A-(4-10), the Affinity at Tacr2 [5] is on record as 6.0 pKd.

On to “hemokinin 1 (RSRTRQFYGLM; Hemokinin; UniProt Q99N14 56-66, looked up) [mammalian tachykinin (Mouse)]”, for which the Affinity with Tacr2 [5] is given as 6.3 pKi.

As for “neuropeptide K (DADSSIEKQVALLKALYGHGQISHKRHKTDSFVGLM; Neuropeptide K; UniProt P20366 72-107, looked up) [natural agonist of Tacr2 (Human, Rat)]”, the Affinity in the series with Tacr2 [8] is recorded as 8.8 pEC50.

In the case of neuropeptide γ, the Affinity with Tacr2 [8] is 9.5 pEC50.
